Like-named read-outs stand apart in the source and are kept apart here. Where a SMILES comes first, the peptide text is derived from it. Side-chain parts run from the residue outwards. [ ]: non-standard residue; d: D form. The star is where a group is joined. DOTA = O=C(O)CN1CCN(CC(=O)O)CCN(CC(=O)*)CCN(CC(=O)O)CC1; dTyr(3-I) = N[C@H](Cc1ccc(O)c(I)c1)C(=O)O; 2Nal = N[C@@H](Cc1ccc2ccccc2c1)C(=O)O; dNMeOrn = CN[C@H](CCCN)C(=O)O; 4Abz = Nc1ccc(C(=O)O)cc1
Experiments:
[1] = Lipophilicity, modified shake-flask method; format: physicochemical; settings: O/PBS, radiolabeled compound, means ± SD (n=6)
Procedure: The lipophilicity (log PO/PBS) of the ^68Ga- and ^177Lu-labeled compounds in this study was determined via a modified shake-flask method.

[2] = test system: Daudi (human B-cell lymphoma) xenograft bearing CB-17 SCID mice; assay: Biodistribution in Daudi xenograft bearing mice; format: in vivo, mouse; settings: 1h p.i., tracer only, i.v.; γ-counter; means ± SD, n=4-5 (68Ga: n=4)
Procedure: (§1) The biodistribution of selected compounds was investigated in Daudi (human B-cell lymphoma) xenograft bearing female CB-17 SCID mice (6-8 weeks, Charles River, Sulzfeld, Germany), [29]. All animal experiments were performed in accordance with current animal welfare regulations in Germany (approval #55.2-1-54-2532-71-13).
(§2) Animals (n=4-5 per group) were injected intravenously with 5-10 MBq (0.08-0.11 nmol peptide per mouse) of the respective ^68Ga- and^ 177Lu-labeled CXCR4 ligands in PBS (100 µL) into the tail vein under isoflurane anesthesia. CXCR4-specificity of binding was determined by coinjection of 50 µg AMD3100 per mouse. The animals were sacrificed 1, 6 and 48h post injection (p.i.), and the organs of interest were dissected. The radioactivity was measured in weighted tissue samples using a γ-counter. Data are expressed in % ID/g tissue (mean ± SD).

[3] = Small animal PET imaging in Daudi xenograft bearing mice; format: in vivo; settings: CB17 SCID, mouse, iv, total radioactivity, 90 min p.i., dynamic PET, ROI analysis, n=1 per compound
Procedure: Small aminal PET imaging studies were performed using a Siemens Inveon PET scanner. Animals were anesthetized with isoflurane and injected via the tail vein with 10 to 15 MBq (0.1 nmol) of the respective tracer. Dynamic imaging (n=1 per compound) was performed after on-bed injection for 1.5 h, and static images (n=1 per compound) were acquired at 1 h p.i. with an acquisition time of 15 min. Data analysis was performed using the Inveon Research Workplace software. Images were reconstructed using a 3D ordered-subsets expectation maximum (OSEM3D) algorithm without scanner and attenuation correction. Time-activity curves (Figure 4) were obtained by generating isocontour regions of interest (ROI) for the tumor and the heart content (as a surrogate for blood activity), as well as by defining two spherical ROIs (each 23.4 mm^3) in the thigh area (muscle) and areas of homogenous tracer uptake in the liver, followed by plotting of average activity ± SD per volume in these ROIs over time.  Figure 4 Results from small animal PET imaging using [^68Ga]PentixaFor (top row), [^68Ga]DOTA-r-a-ABA-CPCR4 (middle row) and [^68Ga]DOTA-r-a-ABA-iodoCPCR4 (bottom row) in Daudi xenograft bearing CB17 SCID mice. Images on the left (MIP) were obtained by static imaging (1h p.i., n=1), the time activity curves (TAC) on the right were acquired by dynamic PET imaging (0-90 min p.i., n=1).

[4] = Biodistribution in Daudi xenograft bearing mice; format: in vivo, mouse; settings: female, CB-17 SCID, mouse, iv, total radioactivity, 1h p.i., tracer only, i.v., γ-counter, means ± SD, n=4-5 (68Ga: n=4)
Procedure: as §1, §2

human CXCR4 (hCXCR4) = biological target: T1, human CXCR4 (hCXCR4) (Homo sapiens, UniProt P61073); assay: Competition binding to hCXCR4, Jurkat cells, [125I]FC-131 as radioligand; settings: Jurkat cells 400.000 cells/sample, means ± SD of min. three separate experiments
T1 construct: hCXCR4-expressing Jurkat human T-cell leukemia cells; endogenous in cells; host or cells: Jurkat human T-cell leukemia cells (whole cells)
T1 sequence (P61073 whole entry): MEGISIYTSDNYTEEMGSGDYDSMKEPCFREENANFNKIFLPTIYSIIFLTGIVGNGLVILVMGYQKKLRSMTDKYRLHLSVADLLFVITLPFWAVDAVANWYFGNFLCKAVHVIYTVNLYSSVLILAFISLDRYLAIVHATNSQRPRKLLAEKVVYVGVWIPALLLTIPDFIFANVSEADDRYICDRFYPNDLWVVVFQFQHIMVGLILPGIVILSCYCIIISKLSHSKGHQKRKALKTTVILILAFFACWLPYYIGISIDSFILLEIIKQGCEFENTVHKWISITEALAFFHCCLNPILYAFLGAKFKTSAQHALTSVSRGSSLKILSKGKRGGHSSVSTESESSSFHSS
Procedure: Experiments were performed in triplicate with n=3 per concentration in each experiment. IC50 values were calculated using GraphPad Prism 6.01 (Graph Pad Software, San Diego, USA).
Figure 2 Binding affinities (IC50 in nM) of the respective ^natGa-, ^natLu-, ^natY- and ^natBi-complexes of PentixaFor (entry 1), PentixaTher (entry 2) and a series of CPCR4-(blue) and iodoCPCR4-(black) derived analogs with modified linker structure (entries 3-14) to human CXCR4 (hCXCR4). […] Each experiment was performed in triplicate, and results are means ± SD from a minimum of three separate experiments. TEXT PRINTED IN THE PICTURE: 1: ^natGa-complex IC50 [nM]: 24.8 ± 2.5; ^natLu-complex IC50 [nM]: 41 ± 12; ^natY-complex IC50 [nM]: 40 ± 27 | 2: ^natGa-complex IC50 [nM]: 6.1 ± 1.5; ^natLu-complex IC50 [nM]: 14.6 ± 1.0; ^natY-complex IC50 [nM]: 20.4 ± 0.3; ^natBi-complex IC50 [nM]: 24.4 ± 3.7 | 3: ^natGa-complex IC50 [nM]: 282 ± 90; ^natLu-complex IC50 [nM]: 12.5 ± 3.2; ^natY-complex IC50 [nM]: 216 ± 33; ^natBi-complex IC50 [nM]: 27 ± 14 | 4: ^natGa-complex IC50 [nM]: 14.4 ± 0.3; ^natLu-complex IC50 [nM]: 28 ± 9; ^natY-complex IC50 [nM]: 83 ± 30 | 5: ^natLu-complex IC50 [nM]: 106 ± 10 | 6: ^natGa-complex IC50 [nM]: 7.9 ± 1.1; ^natLu-complex IC50 [nM]: 5.9 ± 0.3; ^natY-complex IC50 [nM]: 6.7 ± 1.2; ^natBi-complex IC50 [nM]: 14.5 ± 0.2 | 7: ^natGa-complex IC50 [nM]: 47 ± 8; ^natLu-complex IC50 [nM]: 39 ± 1; ^natY-complex IC50 [nM]: 43 ± 2 | 8: ^natGa-complex IC50 [nM]: 3.6 ± 0.7; ^natLu-complex IC50 [nM]: 3.5 ± 0.3; ^natY-complex IC50 [nM]: 4.1 ± 1.3; ^natBi-complex IC50 [nM]: 3.5 ± 0.4 | 9: ^natGa-complex IC50 [nM]: 8.9 ± 3.8; ^natLu-complex IC50 [nM]: 8.0 ± 3.1; ^natY-complex IC50 [nM]: 6.3 ± 2.5 | 10: ^natGa-complex IC50 [nM]: 2.4 ± 0.1; ^natLu-complex IC50 [nM]: 3.6 ± 1.1; ^natY-complex IC50 [nM]: 2.4 ± 0.2; ^natBi-complex IC50 [nM]: 38 ± 25 | 11: ^natGa-complex IC50 [nM]: 9.7 ± 2.8; ^natLu-complex IC50 [nM]: 5.4 ± 1.6; ^natY-complex IC50 [nM]: 8.7 ± 2.9 | 12: ^natGa-complex IC50 [nM]: 1.4 ± 0.2; ^natLu-complex IC50 [nM]: 2.1 ± 0.3; ^natY-complex IC50 [nM]: 2.1 ± 0.3; ^natBi-complex IC50 [nM]: 2.9 ± 0.1 | 13: ^natGa-complex IC50 [nM]: 0.4 ± 0.1; ^natLu-complex IC50 [nM]: 1.5 ± 0.1; ^natY-complex IC50 [nM]: 1.5 ± 0.1 | 14: ^natGa-complex IC50 [nM]: 2.6 ± 1.0; ^natLu-complex IC50 [nM]: 1.7 ± 0.6; ^natY-complex IC50 [nM]: 1.6 ± 0.5; ^natBi-complex IC50 [nM]: 1.8 ± 0.8

[5] = natBi-complex, read-out: ^natBi-complex IC50 to hCXCR4
[6] = natGa-complex, read-out: ^natGa-complex IC50 to hCXCR4
[7] = natLu-complex, read-out: ^natLu-complex IC50 to hCXCR4
[8] = natY-complex, read-out: ^natY-complex IC50 to hCXCR4

IC50 (human CXCR4 (hCXCR4); [6])	IC50 (human CXCR4 (hCXCR4); [7])	IC50 (human CXCR4 (hCXCR4); [8])	Compound	other results
	106 ± 10 nM		DOTA-d-ABA-iodoCPCR4 (head to tail) [entry 5]	
14.4 ± 0.3 nM	28 ± 9 nM	83 ± 30 nM	DOTAGA-ABA-iodoCPCR4 (head to tail) [entry 4]	
47 ± 8 nM	39 ± 1 nM	43 ± 2 nM	DOTAGA-G-ABA-iodoCPCR4 (head to tail) [entry 7]	
24.8 ± 2.5 nM	41 ± 12 nM	40 ± 27 nM	PentixaFor [entry 1, reference compound]	

Further lines, the compound ahead of its results:

Compound	IC50 (human CXCR4 (hCXCR4); [6])	IC50 (human CXCR4 (hCXCR4); [7])	IC50 (human CXCR4 (hCXCR4); [8])	other results
CN1C(=O)[C@@H](Cc2ccc(O)c(I)c2)NC(=O)CNC(=O)[C@H](Cc2ccc3ccccc3c2)NC(=O)[C@H](CCCNC(=N)N)NC(=O)[C@H]1CCCNC(=O)c1ccc(NC(=O)CNC(=O)[C@@H](CCCNC(=N)N)NC(=O)CN2CCN(CC(=O)O)CCN(CC(=O)O)CCN(CC(=O)O)CC2)cc1 [[^68Ga]DOTA-r-G-ABA-iodoCPCR4] [metal not drawn] (cyclo([2Nal]G[dTyr(3-I)][dNMeOrn]([4Abz-Gly-dR-DOTA])R))				log PO/PBS [1]: -3.0 ± 0.02
C[C@@H](NC(=O)[C@@H](CCCNC(=N)N)NC(=O)CN1CCN(CC(=O)O)CCN(CC(=O)O)CCN(CC(=O)O)CC1)C(=O)Nc1ccc(C(=O)NCCC[C@@H]2C(=O)N[C@@H](CCCNC(=N)N)C(=O)N[C@@H](Cc3ccc4ccccc4c3)C(=O)NCC(=O)N[C@H](Cc3ccc(O)cc3)C(=O)N2C)cc1 [[^68Ga]DOTA-r-a-ABA-CPCR4] [metal not drawn] (cyclo([2Nal]G[dY][dNMeOrn]([4Abz-dA-dR-DOTA])R))				log PO/PBS [1]: -3.6 ± 0.06; Biodistribution blood [2]: 3.95 ± 0.89 %iD/g; Biodistribution liver [2]: 5.63 ± 0.51 %iD/g
C[C@@H](NC(=O)[C@@H](CCCNC(=N)N)NC(=O)CN1CCN(CC(=O)O)CCN(CC(=O)O)CCN(CC(=O)O)CC1)C(=O)Nc1ccc(C(=O)NCCC[C@@H]2C(=O)N[C@@H](CCCNC(=N)N)C(=O)N[C@@H](Cc3ccc4ccccc4c3)C(=O)NCC(=O)N[C@H](Cc3ccc(O)c(I)c3)C(=O)N2C)cc1 [[^68Ga]DOTA-r-a-ABA-iodoCPCR4, metal not drawn] (cyclo([2Nal]G[dTyr(3-I)][dNMeOrn]([4Abz-dA-dR-DOTA])R))				tissue uptake per volume at 1.5 h ([3]; kidney, read-out: Kidney uptake in PET): 4.3 ± 0.4 %ID/mL; tissue uptake per volume at 1.5 h ([3]; liver, average ± SD per volume in ROI, read-out: Liver uptake in PET): 6.1 ± 0.1 %ID/mL; tissue uptake per volume at 1.5 h ([3]; tumor (Daudi xenograft), Daudi xenograft, read-out: Tumor accumulation in PET): 14.2 ± 1.5 %ID/mL; tissue uptake at 1 h ([4]; blood, read-out: Biodistribution blood): 3.71 ± 0.28 %ID/g; tissue uptake at 1 h ([4]; colon, read-out: Biodistribution colon): 0.65 ± 0.29 %ID/g; tissue uptake at 1 h ([4]; femur, read-out: Biodistribution femur): 1.41 ± 0.16 %ID/g; tissue uptake at 1 h ([4]; heart, read-out: Biodistribution heart): 1.56 ± 0.2 %ID/g; tissue uptake at 1 h ([4]; kidney, read-out: Biodistribution kidney): 6.25 ± 0.52 %ID/g; tissue uptake at 1 h ([4]; muscle, read-out: Biodistribution muscle): 0.49 ± 0.08 %ID/g; tissue uptake at 1 h ([4]; pancreas, read-out: Biodistribution pancreas): 0.88 ± 0.06 %ID/g; tissue uptake at 1 h ([4]; small intestine, read-out: Biodistribution small intestine): 1.18 ± 0.03 %ID/g
CN1C(=O)[C@@H](Cc2ccc(O)c(I)c2)NC(=O)CNC(=O)[C@H](Cc2ccc3ccccc3c2)NC(=O)[C@H](CCCNC(=N)N)NC(=O)[C@H]1CCCNC(=O)c1ccc(NC(=O)CNC(=O)[C@@H](CCCNC(=N)N)NC(=O)CN2CCN(CC(=O)O)CCN(CC(=O)O)CCN(CC(=O)O)CC2)cc1 [[^177Lu]DOTA-r-G-ABA-iodoCPCR4] [metal not drawn] (cyclo([2Nal]G[dTyr(3-I)][dNMeOrn]([4Abz-Gly-dR-DOTA])R))				log PO/PBS [1]: -2.7 ± 0.05
DOTA-G-ABA-iodoCPCR4 (head to tail) [entry 6]	7.9 ± 1.1 nM	5.9 ± 0.3 nM	6.7 ± 1.2 nM	IC50 (human CXCR4 (hCXCR4); [5]): 14.5 ± 0.2 nM
DOTA-k-G-ABA-CPCR4 [entry 9]	8.9 ± 3.8 nM	8 ± 3.1 nM	6.3 ± 2.5 nM	
DOTA-k-G-ABA-iodoCPCR4 (head to tail) [entry 10]	2.4 ± 0.1 nM	3.6 ± 1.1 nM	2.4 ± 0.2 nM	IC50 (human CXCR4 (hCXCR4); [5]): 38 ± 25 nM
DOTA-r-G-ABA-CPCR4 [entry 11]	9.7 ± 2.8 nM	5.4 ± 1.6 nM	8.7 ± 2.9 nM	

From paper PMC7381729, “A new class of PentixaFor- and PentixaTher-based theranostic agents with enhanced CXCR4-targeting efficiency” (Theranostics, 2020)
